In patent US20230146455A1, “TREATMENT OF INFLAMMATORY DISEASES WITH PEPTIDES AND PHARMACEUTICAL COMPOSITIONS” (Yuyu Pharma, Inc., priority 2020, published 2023):
Values joined by “and” are separate entries in the source; they are usually repeats but may differ in a detail not shown here. Equal entries are not always repeated. Where a SMILES comes first, the peptide text is derived from it. [ ]: non-standard residue; d: D form. Hyp = O=C(O)[C@@H]1C[C@@H](O)CN1

Test system: CCL4/MIP-1 beta
Experiment: Example 9 Luminex, LPS hPBMCs: CCL4/MIP-1 beta
Format: cell-based, human
Settings: for MFI (Bead name: CCL4/MIP-1 beta): dilution 10
Method: Treatment Human PBMCs were pretreated with YY-101, YDE-011 and YDE-043 or reference compound; Xiidra® at various concentration (ranging from 1 nM to 100 uM) for 2 h before stimulation. An equal volume of 0.5% DMSO was used as a vehicle control. Then, the cells were treated with LPS at 5 ug/ml. The supernatants from treated cells were harvested at 24 h and placed in a 96 well for Luminex cytokine & chemokine profiling using a Luminex 200 multiplex assay (Luminex; R&D system, USA).
The main study arm with triplicate wells per group in a 24-well plate: • 1. Blank • 2. PBMC: 0.5% DMSO • 3. PBMC+LPS (5 ug/ml) • 4. PBMC+YY-101 100 uM • 5. PBMC+YY-101 10 uM • 6. PBMC+YY-101 1 uM • 7. PBMC+YY-101 0.1 uM • 8. PBMC+YY-101 0.01 uM • 9. PBMC+LPS (5 ug/ml)+Xiidra®100 uM • 10. PBMC+LPS (5 ug/ml)+Xiidra® 10 uM • 11. PBMC+LPS (5 ug/ml)+Xiidra® 1 uM • 12. PBMC+LPS (5 ug/ml)+Xiidra®0.1 uM • 13. PBMC+LPS (5 ug/ml)+Xiidra®0.01 uM • 14. PBMC+LPS (5 ug/ml)+Xiidra®0.001 uM • 15. PBMC+LPS (5 ug/ml)+YY-101 100 uM • 16. PBMC+LPS (5 ug/ml)+YY-101 10 uM • 17. PBMC+LPS (5 ug/ml)+YY-101 1 uM • 18. PBMC+LPS (5 ug/ml)+YY-101 0.1 uM • 19. PBMC+LPS (5 ug/ml)+YY-101 0.01 uM • 20. PBMC+LPS (5 ug/ml)+YY-101 0.001 uM • 21. PBMC+LPS (5 ug/ml)+YDE-011 100 uM • 22. PBMC+LPS (5 ug/ml)+YDE-011 10 uM • 23. PBMC+LPS (5 ug/ml)+YDE-011 1 uM • 24. PBMC+LPS (5 ug/ml)+YDE-011 0.1 uM • 25. PBMC+LPS (5 ug/ml)+YDE-011 0.01 uM • 26. PBMC+LPS (5 ug/ml)+YDE-011 0.001 uM • 27. PBMC+LPS (5 ug/ml)+YDE-043 100 uM • 28. PBMC+LPS (5 ug/ml)+YDE-043 10 uM • 29. PBMC+LPS (5 ug/ml)+YDE-043 1 uM • 30. PBMC+LPS (5 ug/ml)+YDE-043 0.1 uM • 31. PBMC+LPS (5 ug/ml)+YDE-043 0.01 uM • 32. PBMC+LPS (5 ug/ml)+YDE-043 0.001 uM
Multiplex assay was used to measure 30 cytokines and chemokines. The 1:2, 1:10 and 1:200 diluted cell supernatant and serial dilution of the standard were dispensed into a 96 well plate at 50 ul/well. Then, the pre-mixed cocktail of antibody-coated magnetic beads was dispensed at 50 ul/well and incubated at room temperature for 2 h in a horizontal orbital microplate shaker at 800±500 rpm. The beads were washed using a magnetic device to prevent loss. The biotin-antibody was dispensed in 50 ul of each well and incubated at room temperature for 1 h in a shaker at 800±500 rpm. After washing, streptavidin-PE was added at 50 ul/well and incubated at room temperature for 30 min in a shaker under the same conditions. Finally, after washing, wash buffer (100 ul/well) was added to the plate and incubated in a shaker for 2 min. The Luminex™ 200 setting were set according to the manufacturer's protocol. The data was calculated with a standard five-parameter logistic nonlinear regression analysis of the data (xPonent software 4.2, USA). The levels of cytokine/chemokine are normalized to the live cell counts (1×10^5 cells/mL) and presented as concentrations per mL (pg/mL or ng/mL).

[1] = PBMC + LPS(5 ug/ml), test article 0.001 uM, Mean
[2] = PBMC + LPS(5 ug/ml), test article 0.001 uM, single replicates
[3] = PBMC + LPS(5 ug/ml), test article 0.01 uM, Mean
[4] = PBMC + LPS(5 ug/ml), test article 0.01 uM, single replicates
[5] = PBMC + LPS(5 ug/ml), test article 0.1 uM, Mean
[6] = PBMC + LPS(5 ug/ml), test article 0.1 uM, single replicates
[7] = PBMC + LPS(5 ug/ml), test article 1 uM, Mean
[8] = PBMC + LPS(5 ug/ml), test article 1 uM, single replicates
[9] = PBMC + LPS(5 ug/ml), test article 10 uM, Mean
[10] = PBMC + LPS(5 ug/ml), test article 10 uM, single replicates
[11] = PBMC + LPS(5 ug/ml), test article 100 uM, Mean
[12] = PBMC + LPS(5 ug/ml), test article 100 uM, single replicates
[13] = PBMC without LPS, test article 0.01 uM, Mean
[14] = PBMC without LPS, test article 0.01 uM, single replicates
[15] = PBMC without LPS, test article 0.1 uM, Mean
[16] = PBMC without LPS, test article 0.1 uM, single replicates
[17] = PBMC without LPS, test article 1 uM, Mean
[18] = PBMC without LPS, test article 1 uM, single replicates
[19] = PBMC without LPS, test article 10 uM, Mean
[20] = PBMC without LPS, test article 10 uM, single replicates
[21] = PBMC without LPS, test article 100 uM, Mean
[22] = PBMC without LPS, test article 100 uM, single replicates

## CC(C)C[C@H](NC(=O)CNC(=O)[C@H](CC(=O)O)NC(=O)[C@H](CCC(N)=O)NC(=O)CNC(=O)[C@@H]1C[C@@H](O)CN1)C(=O)N[C@@H](C)C(=O)NCC(=O)N1CCC[C@H]1C(=O)N[C@@H](CCCCN)C(=O)O [YY-101] (H-[Hyp]GQDGLAGPK-OH; N-terminus and C-terminus assumed)
LPS 5 ug/mL 24 hrs, 100 uM to 1 nM
  LPS-induced CCL4 (in words): significantly reduced
[1]
  Concentration (CCL4/MIP-1 beta): 13975.6 pg/mL
  conc/live cell (CCL4/MIP-1 beta): 2183.3 pg/10^5
  MFI (Bead name: CCL4/MIP-1 beta): 515.8
[2]
  MFI (Bead name: CCL4/MIP-1 beta): 551.5 and 527.0 and 469.0
  Concentration (CCL4/MIP-1 beta): 14562.9 pg/mL and 14163.0 pg/mL and 13200.9 pg/mL
  conc/live cell (CCL4/MIP-1 beta): 2554.9 pg/10^5 and 1994.8 pg/10^5 and 2000.1 pg/10^5
[3]
  Concentration (CCL4/MIP-1 beta): 15170.0 pg/mL
  conc/live cell (CCL4/MIP-1 beta): 2461.1 pg/10^5
  MFI (Bead name: CCL4/MIP-1 beta): 589.2
[4]
  MFI (Bead name: CCL4/MIP-1 beta): 611.0 and 596.5 and 560.0
  Concentration (CCL4/MIP-1 beta): 15520.6 pg/mL and 15288.8 pg/mL and 14700.8 pg/mL
  conc/live cell (CCL4/MIP-1 beta): 2425.1 pg/10^5 and 2548.1 pg/10^5 and 2410.0 pg/10^5
[5]
  Concentration (CCL4/MIP-1 beta): 15088.0 pg/mL
  conc/live cell (CCL4/MIP-1 beta): 2590.9 pg/10^5
  MFI (Bead name: CCL4/MIP-1 beta): 584.0
[6]
  MFI (Bead name: CCL4/MIP-1 beta): 576.0 and 592.0 and 584.0
  Concentration (CCL4/MIP-1 beta): 14959.4 pg/mL and 15216.6 pg/mL and 15088.1 pg/mL
  conc/live cell (CCL4/MIP-1 beta): 2412.8 pg/10^5 and 2926.3 pg/10^5 and 2433.6 pg/10^5
[7]
  Concentration (CCL4/MIP-1 beta): 14794.1 pg/mL
  conc/live cell (CCL4/MIP-1 beta): 2273.3 pg/10^5
  MFI (Bead name: CCL4/MIP-1 beta): 565.8
[8]
  MFI (Bead name: CCL4/MIP-1 beta): 594.0 and 556.5 and 547.0
  Concentration (CCL4/MIP-1 beta): 15248.7 pg/mL and 14644.0 pg/mL and 14489.7 pg/mL
  conc/live cell (CCL4/MIP-1 beta): 2420.4 pg/10^5 and 2062.5 pg/10^5 and 2337.0 pg/10^5
[9]
  Concentration (CCL4/MIP-1 beta): 15474.9 pg/mL
  conc/live cell (CCL4/MIP-1 beta): 2351.1 pg/10^5
  MFI (Bead name: CCL4/MIP-1 beta): 608.3
[10]
  MFI (Bead name: CCL4/MIP-1 beta): 614.0 and 651.0 and 560.0
  Concentration (CCL4/MIP-1 beta): 15568.4 pg/mL and 16155.4 pg/mL and 14700.8 pg/mL
  conc/live cell (CCL4/MIP-1 beta): 2594.7 pg/10^5 and 2524.3 pg/10^5 and 1934.3 pg/10^5
[11]
  Concentration (CCL4/MIP-1 beta): 13712.9 pg/mL
  conc/live cell (CCL4/MIP-1 beta): 2374.0 pg/10^5
  MFI (Bead name: CCL4/MIP-1 beta): 499.8
[12]
  MFI (Bead name: CCL4/MIP-1 beta): 537.0 and 474.5 and 488.0
  Concentration (CCL4/MIP-1 beta): 14326.7 pg/mL and 13293.2 pg/mL and 13518.7 pg/mL
  conc/live cell (CCL4/MIP-1 beta): 2274.1 pg/10^5 and 2144.1 pg/10^5 and 2703.7 pg/10^5
[13]
  conc/live cell (CCL4/MIP-1 beta): 0.0 pg/10^5
  MFI (Bead name: CCL4/MIP-1 beta): 0.0
[14]
  MFI (Bead name: CCL4/MIP-1 beta): 0.0
  conc/live cell (CCL4/MIP-1 beta): 0.0 pg/10^5
[15]
  conc/live cell (CCL4/MIP-1 beta): 0.0 pg/10^5
  MFI (Bead name: CCL4/MIP-1 beta): 0.0
[16]
  MFI (Bead name: CCL4/MIP-1 beta): 0.0
  conc/live cell (CCL4/MIP-1 beta): 0.0 pg/10^5
[17]
  conc/live cell (CCL4/MIP-1 beta): 0.0 pg/10^5
  MFI (Bead name: CCL4/MIP-1 beta): −0.8
[18]
  MFI (Bead name: CCL4/MIP-1 beta): −1.0 and −0.5
  conc/live cell (CCL4/MIP-1 beta): 0.0 pg/10^5
[19]
  Concentration (CCL4/MIP-1 beta): 1948.5 pg/mL
  conc/live cell (CCL4/MIP-1 beta): 152.2 pg/10^5
  MFI (Bead name: CCL4/MIP-1 beta): 5.5
[20]
  MFI (Bead name: CCL4/MIP-1 beta): 10.0 and 1.0
  Concentration (CCL4/MIP-1 beta): 1948.5 pg/mL
  conc/live cell (CCL4/MIP-1 beta): 304.4 pg/10^5 and 0.0 pg/10^5
[21]
  Concentration (CCL4/MIP-1 beta): 1360.7 pg/mL
  conc/live cell (CCL4/MIP-1 beta): 207.4 pg/10^5
  MFI (Bead name: CCL4/MIP-1 beta): 6.5
[22]
  MFI (Bead name: CCL4/MIP-1 beta): 10.0 and 3.0
  Concentration (CCL4/MIP-1 beta): 1948.5 pg/mL and 772.9 pg/mL
  conc/live cell (CCL4/MIP-1 beta): 304.4 pg/10^5 and 110.4 pg/10^5
